For the test, the target named is T1, ERα (Homo sapiens, UniProt P03372).
T1 construct: host or cells: MCF7
T1 sequence (P03372 1-595): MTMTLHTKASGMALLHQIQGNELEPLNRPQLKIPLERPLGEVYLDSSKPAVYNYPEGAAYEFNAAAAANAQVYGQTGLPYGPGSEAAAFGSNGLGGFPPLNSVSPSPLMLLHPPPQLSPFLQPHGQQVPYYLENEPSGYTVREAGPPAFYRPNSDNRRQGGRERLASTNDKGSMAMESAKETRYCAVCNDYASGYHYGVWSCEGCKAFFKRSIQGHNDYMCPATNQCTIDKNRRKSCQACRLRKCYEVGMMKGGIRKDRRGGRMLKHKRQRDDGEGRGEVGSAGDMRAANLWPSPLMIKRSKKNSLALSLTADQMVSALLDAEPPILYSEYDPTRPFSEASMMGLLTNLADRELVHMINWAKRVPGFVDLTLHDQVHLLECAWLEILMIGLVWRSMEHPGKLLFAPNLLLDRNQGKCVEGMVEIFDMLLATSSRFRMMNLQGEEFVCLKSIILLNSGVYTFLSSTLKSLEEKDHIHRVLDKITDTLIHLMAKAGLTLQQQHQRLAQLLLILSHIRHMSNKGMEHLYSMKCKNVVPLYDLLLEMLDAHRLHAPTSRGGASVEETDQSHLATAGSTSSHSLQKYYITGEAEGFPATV
As to the kind of experiment: Estrogen receptor degradation activity: breast cancer cell ERα in cell western assay (MCF7 cells). It is filed as cell-based. The conditions noted are these: for % Degradation At 0.3 μM: 4 hours, relative to fulvestrant 0.1 μM positive control; for DC50: 4 hours post compound addition, concentration which degrades 50% of the estrogen receptor, read-out: Degradation IC50. Summed up:
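Compounds were applied to MCF7 cells in stripped-serum, phenol red-free medium for 4 h at final 0.3–0.0000018 μM, with fulvestrant (0.1 μM) as control. Value: IC50 (nM) for 50% ERα degradation.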

Turning to `CC1CCc2cc(C(=O)O)ccc2C(c2ccc(CC3CN(CCCF)C3)cc2)=C1c1ccc(F)cc1C(F)(F)F` (racemic) [Example 312, 8-(4-fluoro-2-(trifluoromethyl)phenyl)-9-(4-((1-(3-fluoropropyl)azetidin-3-yl)methyl)phenyl)-7-methyl-6,7-dihydro-5H-benzo[7]annulene-3-carboxylic acid], the “% Degradation At 0.3 μM” value was 91% and the DC50 came out at 0.3 nM.
As for `O=C(O)c1ccc2c(c1)CCCC(c1cccc(C(F)(F)F)c1Cl)=C2c1ccc(CC2CN(CCC(F)(F)F)C2)cc1` [Example 257, 8-(2-chloro-3-(trifluoromethyl)phenyl)-9-(4-((1-(3,3,3-trifluoropropyl)azetidin-3-yl)methyl)phenyl)-6,7-dihydro-5H-benzo[7]annulene-3-carboxylic acid], the “% Degradation At 0.3 μM” value was found to be 83% and the DC50 was found to be 0.7 nM.
The like results for `O=C(O)c1ccc2c(c1)CCCC(c1ccc(Cl)cc1Cl)=C2c1ccc(C(O)C2CN(CCCF)C2)cc1` (single isomer, unassigned) [Example 42, 8-(2,4-dichlorophenyl)-9-(4-((1-(3-fluoropropyl)azetidin-3-yl)(hydroxy)methyl)phenyl)-6,7-dihydro-5H-benzo[7]annulene-3-carboxylic acid] were, in that order, 94% and 3.3 nM.
